Test system: C57B16/J mice, transient occlusion of the middle cerebral artery (tMCAO)
Assay: tMCAO ischemia model, infarct size
Type: in vivo, mouse
Settings: 0.1 mg/kg i.p. 1 h after reperfusion; 1 h tMCAO, 24 h reperfusion; versus non-treated animals (FIG. 10)
Method: C57B16/J mice were anesthetized with isoflurane (0.6% in oxygen). The animal was placed on a heating-pad, and rectal temperature was maintained at 37.0° C. Transient cerebral ischemia was induced using an intraluminal filament technique. Using a surgical microscope (Tecnoscopio OPMI pico, Carl Zeiss, Meditec Iberia SA, Spain), a midline neck incision was made and the right common and external carotid arteries were isolated and permanently ligated. A microvascular temporarily ligature was placed on the internal carotid artery to temporarily stop the blood flow. A silicon rubber-coated monofilament (6023910PK10, Doccol, USA) was inserted through a small incision into the common carotid artery and advanced into the internal carotid artery until a resistance is felt. […]
After sacrificing the mice, brains were quickly removed and cut in four 2-mm thick coronal sections using a mouse brain slice matrix (Harvard Apparatus, USA). […] Indirect infarct volumes were calculated by volumetry (ImageJ software, National Institutes of Health, USA) according to the following equation: Vindirect (mm^3)=Vinfarct×(1−(Vih−Vch)/Vch), where the term (Vih−Vch) represents the volume difference between the ischemic hemisphere and the control hemisphere and (Vih−Vch)/Vch expresses this difference as a percentage of the control hemisphere.

COC(=O)N(C)c1c(N)nc(-c2nn(Cc3ccccc3F)c3ncccc23)nc1N [BAY 63-2521, riociguat]
infarct size / infarct volume: reduces infarct size
